# Measured values: ChEMBL document CHEMBL1125691, “Escherichia coli mediated biosynthesis and in vitro anti-HIV activity of lipophilic 6-halo-2',3'-dideoxypurine nucleosides” (J Med Chem, 1991)
# How the values were obtained:
# [1] = Compound was evaluated for the partition coefficient measured for 1-octanol and 0.01 M potassium phosphate buffer (pH 7.0); type: physicochemical; settings: octanol/water
# ATH-8 cell line [2] = test: Concentration required to suppress the growth of target ATH8 cells; type: functional; settings: Homo sapiens, read-out: CD50 (the source's name)
# ATH-8 cell line [3] = test: Concentration required to inhibit the cytopathic effect of HIV-1 on ATH8 cells; type: functional, Human immunodeficiency virus 1; settings: Homo sapiens, read-out: ED50 (the source's name)
# ATH-8 cell line [4] = test: Ratio of CD50/ED50; type: functional
# ATH-8 cell line [5] = test: In Vitro evaluation for the anti-viral activity Drug concentrations required to inhibit the cytopathic effect of HIV-2 on ATH8 cells; type: functional; settings: Homo sapiens, read-out: ED50 (the source's name)
# ATH-8 cell line [6] = test: (§1) ratio of CD50/ED50; type: functional
# ATH-8 cell line [7] = test: In vitro evaluation for the anti-viral activity by taking the drug concentrations required to suppress the growth of target ATH8 cells; type: functional; settings: Homo sapiens, read-out: CD50 (the source's name)
# ATH-8 cell line [8] = test: In vitro evaluation for the anti-viral activity Drug concentrations required to inhibit the cytopathic effect of HIV-1on ATH8 cells; type: functional; settings: Homo sapiens, read-out: ED50 (the source's name)
# [9] = as §1; type: functional
Structure (SMILES),CC50 (ATH-8 cell line [2]) [µM],EC50 (ATH-8 cell line [3]) [µM],other results
Cc1cn([C@H]2C[C@H](N=[N+]=[N-])[C@@H](CO)O2)c(=O)[nH]c1=O [ZIDOVUDINE],> 20,5,Partition coefficient [1]: 1.12; Ratio (ATH-8 cell line [4]): 4
Nc1nc(I)c2ncn(C3CCC(CO)O3)c2n1 (configuration not stated),210,7.9,–
OCC1CCC(n2cnc3c(I)ncnc32)O1 (configuration not stated),86,46,–
Nc1nc(F)c2ncn([C@H]3CC[C@@H](CO)O3)c2n1,> 300,2.4,EC50 (ATH-8 cell line [5]): 14.5 µM
Nc1nc(Cl)c2ncn([C@H]3CC[C@@H](CO)O3)c2n1,> 300,5.5,EC50 (ATH-8 cell line [5]): 12.5 µM
Nc1nc2c(ncn2[C@H]2CC[C@@H](CO)O2)c(=O)[nH]1,> 900,3.5,Partition coefficient [1]: 0.08; Ratio (ATH-8 cell line [6]): >257
OC[C@@H]1CC[C@H](n2cnc3cncnc32)O1,> 200,> 200,–
OC[C@@H]1CC[C@H](n2cnc3c(F)ncnc32)O1,190,2.8,EC50 (ATH-8 cell line [5]): 16 µM
OCC1CCC(n2cnc3c(Br)ncnc32)O1 (configuration not stated),96,7.7,–
Nc1nc(Br)c2ncn(C3CCC(CO)O3)c2n1 (configuration not stated),> 300,6.9,–
Nc1nc(S)c2ncn(C3CCC(CO)O3)c2n1 (configuration not stated),–,–,CC50 (ATH-8 cell line [7]): 9 µM; EC50 (ATH-8 cell line [8]): > 200 µM; Ratio (ATH-8 cell line [4]): <0.1
O=c1[nH]cnc2c1ncn2[C@H]1CC[C@@H](CO)O1 [DIDANOSINE],> 900,5.6,Partition coefficient [1]: 0.05; Ratio (ATH-8 cell line [6]): >161
Nc1ncc2ncn([C@H]3CC[C@@H](CO)O3)c2n1,> 200,> 200,–
OCC1CCC(n2cnc3c(S)ncnc32)O1 (configuration not stated),150,> 200,Ratio (ATH-8 cell line [6]): <0.8
O=c1[nH]c(=O)c2ncn([C@H]3CC[C@@H](CO)O3)c2[nH]1,> 200,> 200,–
OC[C@@H]1CC[C@H](n2cnc3c(Cl)nc(Cl)nc32)O1,36,> 200,Ratio [9]: < 0.2
OC[C@@H]1CC[C@H](n2cnc3c(Cl)ncnc32)O1,164,6.9,EC50 (ATH-8 cell line [5]): 42 µM
